The target in one assay is T1, KRAS G12D (Homo sapiens, UniProt P01116, G12D).
T1 construct: AsPc-1-KRAS (G12D)-HiBit-KI cell (Pharmaron); host or cells: AsPc-1-KRAS (G12D)-HiBit-KI cells (HiBiT knock-in at the endogenous KRAS locus)
In words: KRAS G12D HiBit assay. Format: cell-based. The settings on record: AsPc-1-KRAS (G12D)-HiBit-KI cell, compound treatment for 24 hours; for DC50: absolute DC50. The method, then: Day 1. […] Allowed cells to reach approximately 80% confluence before splitting. Rinsed cultivated cells in T-75 flasks with 5 mL PBS (Solarbio, P1020-500). […] Inactivated trypsin by adding excessive serum containing medium. Harvested the cells from flask into cell culture medium and counted the cell number.
Day 2. Test compounds were dissolved at 0.3 mM in DMSO (Solarbio, D8371) as stock solution. […] Performed 3-fold, 10-points dilution via transferring 15 μL compound into 30 μL DMSO by using TECAN liquid handler (TECAN, Freedom EVO200).
Day 3. After compound treatment for 24 hours, removed the plate from incubators and equilibrated at room temperature for 15 minutes. Prepared the HiBit reagent (Promega, N3040) by mixing 10 mL of Nano-Glo®-HiBiT Lytic Buffer with 200 μL of Nano-Glo®-HiBiT Lytic Substrate and 100 μL of LgBiT Protein. Added 20 μL of HiBit reagent into each well of the cell plate and spun the plates at room temperature at 1,000 RPM for 1 minute.
The inhibition activity was calculated using the following formula:
(§1) [formula] where HC (high control) is obtained from cells treated with 0.1% DMSO only.

Another assay addresses T2, KRAS G12V (Homo sapiens, UniProt P01116, G12V).
T2 construct: SW620-KRAS (G12V)-HiBit-KI cell (Pharmaron); host or cells: SW620-KRAS (G12V)-HiBit-KI cells (HiBiT knock-in at the endogenous KRAS locus)
In words: KRAS G12V HiBit assay. Format: cell-based. The following applies: SW620-KRAS (G12V)-HiBit-KI cells, compound treatment for 24 hours, class symbols. The method, then: Day 1. […] Rinsed cultivated cells in T-75 flasks with 5 mL PBS (Solarbio, P1020-500). […] Inactivated trypsin by adding excessive serum containing medium. Harvested the cells from flask into cell culture medium and counted the cell number.
Day 2. Test compounds were dissolved at 0.3 mM in DMSO (Solarbio, D8371) as stock solution. […] Performed 3-fold, 10-points dilution via transferring 15 μL compound into 30 μL DMSO by using TECAN liquid handler (TECAN, Freedom EVO200). […] After compound treatment for 24 hours, the plate was removed from incubators and equilibrated at room temperature for 15 minutes. Prepare the HiBit reagent (Promega, N3040) by mixing 10 mL of Nano-Glo®-HiBiT Lytic Buffer with 200 μL of Nano-Glo®-HiBiT Lytic Substrate and 100 μL of LgBiT Protein. Added 20 μL of HiBit reagent into each well of the cell plate and spun the plates at room temperature at 1,000 RPM for 1 minute.
The degradation activity was calculated using the following formula:
as §1

Setting [1] is: numeric bounds given in place of class symbols.

T1 sequence (P01116 1-188 isoform P01116-2 G12D): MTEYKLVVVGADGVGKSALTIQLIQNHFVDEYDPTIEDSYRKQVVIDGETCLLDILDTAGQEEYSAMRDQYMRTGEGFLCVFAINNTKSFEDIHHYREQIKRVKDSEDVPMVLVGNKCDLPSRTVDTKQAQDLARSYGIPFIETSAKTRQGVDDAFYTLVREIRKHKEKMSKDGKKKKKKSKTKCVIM
T2 sequence (P01116 1-188 isoform P01116-2 G12V): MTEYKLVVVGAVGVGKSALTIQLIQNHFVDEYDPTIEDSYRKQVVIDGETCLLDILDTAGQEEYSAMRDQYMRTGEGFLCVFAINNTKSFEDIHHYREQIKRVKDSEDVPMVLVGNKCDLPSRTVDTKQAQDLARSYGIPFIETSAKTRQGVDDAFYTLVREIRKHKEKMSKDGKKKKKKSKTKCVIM

With `CCc1c(F)ccc2cc(O)cc(-c3ncc4c(N5CCC[C@@](C)(O)C5)nc(OC[C@@]56CCCN5[C@H](CN5CCC(OCCCc7ccc8c(c7)n(C)c(=O)n8C7CCC(=O)NC7=O)CC5)CC6)nc4c3F)c12` (stereo partly drawn) [Compound 486, 3-(5-(3-((1-(((3S,7aS)-7a-(((7-(8-ethyl-7-fluoro-3-hydroxynaphthalen-1-yl)-8-fluoro-4-((R)-3-hydroxy-3-methylpiperidin-1-yl)pyrido[4,3-d]pyrimidin-2-yl)oxy)methyl)hexahydro-1H-pyrrolizin-3-yl)methyl)piperidin-4-yl)oxy)propyl)-3-methyl-2-oxo-2,3-dihydro-1H-benzo[d]imidazol-1-yl)piperidine-2,6-dione], the DC50 on KRAS G12D (setting [1]) and at KRAS G12V was over 100 nM throughout.

In the case of `CCc1c(F)ccc2cccc(-c3ncc4c(N5CCC[C@@](C)(O)C5)nc(OC[C@@]56CCCN5[C@H](COC(=O)NCCOCCOc5ccc7c(c5)n(C)c(=O)n7C5CCC(=O)NC5=O)CC6)nc4c3F)c12` (stereo partly drawn) [Compound 103, ((3S,7aS)-7a-(((7-(8-ethyl-7-fluoronaphthalen-1-yl)-8-fluoro-4-((R)-3-hydroxy-3-methylpiperidin-1-yl)pyrido[4,3-d]pyrimidin-2-yl)oxy)methyl)hexahydro-1H-pyrrolizin-3-yl)methyl (2-(2-((1-(2,6-dioxopiperidin-3-yl)-3-methyl-2-oxo-2,3-dihydro-1H-benzo[d]imidazol-5-yl)oxy)ethoxy)ethyl) carbamate], at KRAS G12D (class symbols), the DC50 was over 300 nM and the Dmax lay in the range of 15 to 50%. In addition, on KRAS G12V, the DC50 is over 100 nM.

As to `C[C@H]1CN(CCOCCOc2ccc3c(c2)n(C)c(=O)n3C2CCC(=O)NC2=O)CCCN1c1nccc(-c2noc([C@]3(C)CCCc4sc(N)c(C#N)c43)n2)n1` (some centres unmarked) [Compound 216], the DC50 at KRAS G12V was over 100 nM.

Consider `C[C@H]1CN(CCOCCOc2cccc3c2n(C)c(=O)n3C2CCC(=O)NC2=O)CCCN1c1nccc(-c2noc([C@@]3(C)CCCc4sc(N)c(C#N)c43)n2)n1` (some centres unmarked) [Compound 221], for which the DC50 on KRAS G12V is over 100 nM.

For `CCc1c(F)ccc2cc(O)cc(-c3ncc4c(N5CCC[C@@](C)(O)C5)nc(OC[C@@]56CCCN5[C@H](COC(=O)N5CCC7(CC5)CC(N5CCC(c8ccc9c(c8)n(C)c(=O)n9C8CCC(=O)N(C)C8=O)CC5)C7)CC6)nc4c3F)c12` (stereo partly drawn) [Compound 491, ((3S,7aS)-7a-(((7-(8-ethyl-7-fluoro-3-hydroxynaphthalen-1-yl)-8-fluoro-4-((R)-3-hydroxy-3-methylpiperidin-1-yl)pyrido[4,3-d]pyrimidin-2-yl)oxy)methyl)hexahydro-1H-pyrrolizin-3-yl)methyl 2-(4-(3-methyl-1-(1-methyl-2,6-dioxopiperidin-3-yl)-2-oxo-2,3-dihydro-1H-benzo[d]imidazol-5-yl)piperidin-1-yl)-7-azaspiro[3.5]nonane-7-carboxylate], the DC50 on KRAS G12V was over 100 nM.

The compound `C[C@H]1CN(CCOCCOCCOCCOc2cccc3c2n(C)c(=O)n3C2CCC(=O)NC2=O)CCCN1c1nccc(-c2noc([C@@]3(C)CCCc4sc(N)c(C#N)c43)n2)n1` (some centres unmarked) [Compound 219] returned a DC50 on KRAS G12V of over 100 nM.

For `C[C@H]1CN(CCOCCOCCOc2ccc3c(c2)n(C)c(=O)n3C2CCC(=O)NC2=O)CCCN1c1nccc(-c2noc([C@]3(C)CCCc4sc(N)c(C#N)c43)n2)n1` (some centres unmarked) [Compound 217], the DC50 on KRAS G12V was over 100 nM.

The compound `C[C@H]1CN(CCOCCOCCOCCOc2ccc3c(c2)n(C)c(=O)n3C2CCC(=O)NC2=O)CCCN1c1nccc(-c2noc([C@@]3(C)CCCc4sc(N)c(C#N)c43)n2)n1` (stereo partly drawn) [Compound 200, (4S)-2-amino-4-(3-(2-((2S)-4-(2-(2-(2-(2-((1-(2,6-dioxopiperidin-3-yl)-3-methyl-2-oxo-2,3-dihydro-1H-benzo[d]imidazol-5-yl)oxy)ethoxy)ethoxy)ethoxy)ethyl)-2-methyl-1,4-diazepan-1-yl)pyrimidin-4-yl)-1,2,4-oxadiazol-5-yl)-4-methyl-4,5,6,7-tetrahydrobenzo[b]thiophene-3-carbonitrile] gave a DC50 at KRAS G12V of over 100 nM.

For the compound `C#Cc1c(F)ccc2cc(O)cc(-c3ncc4c(N5CCC[C@@](C)(O)C5)nc(OC[C@@]56CCCN5[C@H](COC(=O)NCCOCCOc5ccc7c(c5)n(C)c(=O)n7C5CCC(=O)NC5=O)CC6)nc4c3F)c12` (stereo partly drawn) [Compound 114, ((3S,7aS)-7a-(((7-(8-Ethynyl-7-fluoro-3-hydroxynaphthalen-1-yl)-8-fluoro-4-((R)-3-hydro-xy-3-methylpiperidin-1-yl)pyrido[4,3-d]pyrimidin-2-yl)oxy)methyl)hexahydro-1H-pyrrolizin-3-yl)methyl (2-(2-((1-(2,6-dioxopiperidin-3-yl)-3-methyl-2-oxo-2,3-dihydro-1H-benzo[d]imidazol-5-yl)oxy)ethoxy)ethyl) carbamate], the DC50 at KRAS G12D (class symbols) is over 300 nM.

In turn, `C#Cc1c(F)ccc2cccc(-c3ncc4c(N5CCC[C@@](C)(O)C5)nc(OCC5(CN6CCN(Cc7ccc8c(c7)n(C)c(=O)n8C7CCC(=O)NC7=O)CC6)CC5)nc4c3F)c12` (some centres unmarked) [Compound 37] had a DC50 at KRAS G12D (class symbols) of over 300 nM.

On to `C#Cc1c(F)ccc2cc(O)cc(-c3ncc4c(N5CCC[C@@](C)(O)C5)nc(OC[C@@]56CCCN5[C@H](COC(=O)N5CCC(N7CCC(c8cccc9c8n(C)c(=O)n9C8CCC(=O)NC8=O)CC7)CC5)CC6)nc4c3F)c12` (some centres unmarked) [Compound 148], for which the DC50 at KRAS G12V is over 100 nM.

As to `C#Cc1c(F)ccc2cccc(-c3ncc4c(N5CCC[C@@](C)(O)C5)nc(OCC5(CN6CCC7(CC6)CCN(c6ccc8c(c6)n(C)c(=O)n8C6CCC(=O)NC6=O)CC7)CC5)nc4c3F)c12` (some centres unmarked) [Compound 38], at KRAS G12D (setting [1]), the DC50 is over 100 nM.

At KRAS G12V, `C[C@H]1CN(CCOCCOCCOc2cccc3c2n(C)c(=O)n3C2CCC(=O)NC2=O)CCCN1c1nccc(-c2noc([C@@]3(C)CCCc4sc(N)c(C#N)c43)n2)n1` (some centres unmarked) [Compound 220] showed a DC50 of over 100 nM.

`C#Cc1c(F)ccc2cc(O)cc(-c3ncc4c(N5CCC[C@@](C)(O)C5)nc(OCC5(CN6CCC7(CC6)CC(N6CCC(c8ccc9c(c8)n(C)c(=O)n9C8CCC(=O)NC8=O)CC6)C7)CC5)nc4c3F)c12` (some centres unmarked) [Compound 54] registered a DC50 at KRAS G12D (class symbols) of under 100 nM.

For `C#Cc1c(F)ccc2cc(O)cc(-c3ncc4c(N5CCC[C@@](C)(O)C5)nc(OCC5(CN6CCN(C7CCN(c8ccc9c(c8)n(C)c(=O)n9C8CCC(=O)NC8=O)CC7)CC6)CC5)nc4c3F)c12` (some centres unmarked) [Compound 45], the DC50 on KRAS G12D (class symbols) was under 100 nM.

As for `C#Cc1c(F)ccc2cccc(-c3ncc4c(N5CCC[C@@](C)(O)C5)nc(OC[C@@]56CCCN5[C@H](COC(=O)NCCOCCOCCOCCOc5ccc7c(c5)n(C)c(=O)n7C5CCC(=O)NC5=O)CC6)nc4c3F)c12` (stereo partly drawn) [Compound 109, ((3S,7aS)-7a-(((7-(8-ethynyl-7-fluoronaphthalen-1-yl)-8-fluoro-4-((R)-3-hydroxy-3-methylpiperidin-1-yl)pyrido[4,3-d]pyrimidin-2-yl)oxy)methyl)hexahydro-1H-pyrrolizin-3-yl)methyl (2-(2-(2-(2-((1-(2,6-dioxopiperidin-3-yl)-3-methyl-2-oxo-2,3-dihydro-1H-benzo[d]imidazol-5-yl)oxy)ethoxy)ethoxy)ethoxy)ethyl) carbamate], on KRAS G12D (class symbols), the DC50 was over 300 nM and the Dmax lay in the range of 15 to 50%.

Take `C#Cc1c(F)ccc2cccc(-c3ncc4c(N5CCC[C@@](C)(O)C5)nc(OCC5(CN6CCC(CN7CCC(c8ccc9c(c8)n(C)c(=O)n9C8CCC(=O)NC8=O)CC7)CC6)CC5)nc4c3F)c12` (some centres unmarked) [Compound 48]: the DC50 on KRAS G12D (class symbols) is over 300 nM.

Turning to `C#Cc1c(F)ccc2cc(O)cc(-c3ncc4c(N5CCC[C@@](C)(O)C5)nc(OCC5(CN6CCC(N7CCC(c8cccc9c8n(C)c(=O)n9C8CCC(=O)NC8=O)CC7)CC6)CC5)nc4c3F)c12` (some centres unmarked) [Compound 85], the DC50 at KRAS G12D (class symbols) was under 100 nM.

For `C[C@H]1CN(CCOCCOCCOc2ccc3c(c2)n(C)c(=O)n3C2CCC(=O)NC2=O)CCCN1c1nccc(-c2noc([C@@]3(C)CCCc4sc(N)c(C#N)c43)n2)n1` (stereo partly drawn) [Compound 202, (4S)-2-amino-4-(3-{2-[(2S)-4-{2-[2-(2-{[1-(2,6-dioxopiperidin-3-yl)-3-methyl-2-oxo-1,3-benzodiazol-5-yl]oxy}ethoxy)ethoxy]ethyl}-2-methyl-1,4-diazepan-1-yl]pyrimidin-4-yl}-1,2,4-oxadiazol-5-yl)-4-methyl-6,7-dihydro-5H-1-benzothiophene-3-carbonitrile], on KRAS G12V, the DC50 was over 100 nM.

The values are drawn from patent US12599672B2, “KRAS proteolysis targeting chimeras” (PAQ Therapeutics Inc., priority 2023, dated 2026).
